Measured values reported in paper PMC10060354, “Discovery of a small molecule ligand of FRS2 that inhibits invasion and tumor growth” (Cellular Oncology, 2022).
Values joined by “and” are separate entries in the source; they are usually repeats but may differ in a detail not shown here. Identical values can stand only once. Like-named read-outs stand apart in the source and are kept apart here.

Tests used:
[1] = tested on: DAOY cells; assay: SIA, EGF-induced cell invasion; type: cell-based, human; settings: 10 µM
Description: (§1) 1000—2500 cells/well in 100 μl were seeded in 96 well Corning® Spheroid microplate (CLS4520, Sigma-Aldrich) or in cell-repellent 96 well microplate (650,790, Greiner Bio-one). SIA and analysis was performed as described before. In brief: After spheroid formation (24 – 72 h after seeding), 70 µl medium was removed and replaced with the collagen mixture (2.5 mg/ml Pure Col Collagen I (Advanced Biomatrix)), DMEM 1x (from 10 × stock, Sigma, D2429) and 0.4% Sodium bicarbonate (Sigma, S8761)), resulting in a final collagen concentration of 1.75 mg/ml. Embedded spheroids were stimulated with bFGF (100 ng/ml if not otherwise stated), HGF (30 ng /ml) or EGF (20 ng/ml) and distance of invaded cells quantified 24 – 48 h after embedding. Compounds and BGJ398 were added in Dimethylsulfoxid (DMSO) and corresponding DMSO concentrations were used in control samples.

[2] = target: T1, FRS2_PTB (Homo sapiens, UniProt Q8WU20); assay: nano differential scanning fluorimetry (nanoDSF); type: binding; settings: 500 μM ligand
T1 construct: FRS2-PTB 11-140aa; 6xHis; made in house; host or cells: E. coli BL21 (DE3)
T1 sequence (Q8WU20 11-140): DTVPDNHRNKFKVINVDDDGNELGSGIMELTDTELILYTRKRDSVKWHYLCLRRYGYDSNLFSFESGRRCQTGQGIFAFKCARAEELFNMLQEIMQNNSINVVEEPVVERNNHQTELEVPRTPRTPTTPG
Description: Assay establishment and pilot nanoDSF experiments were performed with a Tycho® system. Each experiment was performed by mixing the protein and ligand of interest at a 1:1 ratio and subsequent incubation for 15–30 min at room temperature. Controls of protein alone and ligand alone in identical buffer compositions as for the complex were measured accordingly. The temperature gradient ranged from 35 to 95 °C, and the heating rate was 30 °C/min. Inflection temperatures TI were calculated from the first derivative of the spectra obtained at the ratio of the signals at 350 nm to those at 330 nm. ΔTI of a complex was calculated as following: ΔTI,complex = TI,complex – TI,protein.
The in-built software version 1.1.5.668 (NanoTemper Technologies, Munich, Germany) and Microsoft Office Excel 365 (Microsoft Corp., Seattle, USA) was used for data analysis. Data was plotted with GraphPad Prism vers. 8.3.0 (GraphPad Software, San Diego, USA).
Purified FRS2_PTB or GB1_FRS2_PTB protein tagged with 6 × Histidine residues and the B1 immunoglobulin binding domain of the streptococcal protein G (GB1) were diluted in the protein buffer (100 mM sodium phosphate, 50 mM NaCl, 0.5 mM EDTA, 50 mM arginine, 1 mM TCEP, pH 7.0) to 30 μM, GB-1 to 40 μM. FGFR_PEP, compounds or paracetamol (PARA) as negative control were dissolved at 1 mM in the protein buffer supplemented with 10% DMSO. Compound and protein were mixed at 1:1 volume ratio yielding a final concentration of 15 μM and 20 μM for FRS2_PTB/GB1_FRS2_PTB and GB1, respectively, as well as 500 μM for FGFR_PEP or compounds. The mixture was incubated for 15 min. Each compound was measured in triplicates. Protein controls were measured in six replicates in the beginning. The quality of the screen was assessed by the Z-factor. nanoDSF validation studies were performed on a Prometheus® system in high sensitivity capillaries. Samples were heated with 1 °C/min from 20 to 95 °C. Each compound was measured in triplicates. GB1-FRS2_PTB and GB1 were diluted in the protein buffer (100 mM sodium phosphate, 50 mM NaCl, 0.5 mM EDTA, 50 mM arginine, 1 mM TCEP, pH 7.0) to 30 μM. Compounds 3.3, 3.4, 3.18 as well as the 3.18 analogues were dissolved in 100% DMSO at 50 or 100 mM and further diluted to 1 mM with a final DMSO-concentration of 100%. FGFR_PEP was dissolved at 1 mM in the protein buffer supplemented with 10% DMSO. Compound and protein were mixed at 1:1 volume ratio yielding final concentrations of 15 μM protein and 500 μM for the compounds. FGFR_PEP was measured against both GB1-FRS2_PTB and GB1, all other compounds only against GB1-FRS2_PTB. The mixture was incubated for 15 min before measurement. The data was analyzed for both the ratio of signals at 330 and 350 nm and at 350 nm alone. […]

[3] = tested on: DAOY cells; assay: Spheroid invasion assay (SIA), bFGF-induced collagen I invasion; type: cell-based, human; settings: DAOY cells, n = 3 technical replicas, read-out: EC50 for the inhibition of bFGF-induced collagen I invasion
Description: as §1

[4] = target: T2, GB1-FRS2-PTB (Homo sapiens, UniProt Q8WU20); assay: Microscale thermophoresis (MST); type: binding
T2 construct: FRS2-PTB 11-140aa; 6xHis (N); made in house; host or cells: E. coli BL21 (DE3)
T2 sequence (Q8WU20 11-140): T1 sequence (Q8WU20 11-140)
Description: Protein labeling for MST was performed with the 2nd Generation BLUE-NHS dye. GB1-FRS2_PTB- was labelled at 20 μM with 60 μM dye and incubated for 30 min in the dark at room temperature. The labelling was performed in the protein buffer without arginine supplementation. It was rebuffered to protein buffer (100 mM sodium phosphate, 50 mM NaCl, 0.5 mM EDTA, 50 mM arginine, 1 mM TCEP, pH 7.0). The dye was subsequently removed by gravitational flow chromatography and the protein concentration determined by UV-spectroscopy. The assay was established with the FGFR_PEP. […] A total volume of 10 μl of 50 nM labelled protein was added to 10 μl of the peptide dilution series for a final labelled protein concentration of 25 nM. The samples were incubated for 15 min at RT. […] Temperature was set to 25 °C. Each measurement was repeated twice. The interaction was measured in duplicates for the non-DMSO-supplemented buffer and in triplicates for DMSO-supplemented buffer. […] The samples were incubated for 15 min, and MST assessed as described above. Each measurement was repeated twice. The interaction was measured in two independent duplicates. […] The mixture was then measured for their initial fluorescence once. MST-experiments were performed with MO.Control vers. 1.6 (NanoTemper Technologies, Munich, Germany) and data analyzed with MO.Analysis vers. 2.3 (NanoTemper Technologies, Munich, Germany). Data was plotted with GraphPad Prism vers. 8.3.0 (GraphPad Software, San Diego, USA).

[5] = target: T3, GB1-FRS2_PTB:FGFR_PEP (Homo sapiens, UniProt Q8WU20); assay: nanoDSF competition assay with the FGFR peptide; type: binding; settings: PTB domain:FGFR peptide 1:5; 500 μM compound
T3 construct: FRS2-PTB 11-140aa; 6xHis (N); made in house; host or cells: E. coli BL21 (DE3) for the protein
T3 sequence (Q8WU20 11-140): T1 sequence (Q8WU20 11-140)
Description: Purified FRS2_PTB or GB1_FRS2_PTB protein tagged with 6 × Histidine residues and the B1 immunoglobulin binding domain of the streptococcal protein G (GB1) were diluted in the protein buffer (100 mM sodium phosphate, 50 mM NaCl, 0.5 mM EDTA, 50 mM arginine, 1 mM TCEP, pH 7.0) to 30 μM, GB-1 to 40 μM. FGFR_PEP, compounds or paracetamol (PARA) as negative control were dissolved at 1 mM in the protein buffer supplemented with 10% DMSO. Compound and protein were mixed at 1:1 volume ratio yielding a final concentration of 15 μM and 20 μM for FRS2_PTB/GB1_FRS2_PTB and GB1, respectively, as well as 500 μM for FGFR_PEP or compounds. The mixture was incubated for 15 min. Each compound was measured in triplicates. Protein controls were measured in six replicates in the beginning. The quality of the screen was assessed by the Z-factor. nanoDSF validation studies were performed on a Prometheus® system in high sensitivity capillaries. Samples were heated with 1 °C/min from 20 to 95 °C. Each compound was measured in triplicates. GB1-FRS2_PTB and GB1 were diluted in the protein buffer (100 mM sodium phosphate, 50 mM NaCl, 0.5 mM EDTA, 50 mM arginine, 1 mM TCEP, pH 7.0) to 30 μM. Compounds 3.3, 3.4, 3.18 as well as the 3.18 analogues were dissolved in 100% DMSO at 50 or 100 mM and further diluted to 1 mM with a final […]. FGFR_PEP was dissolved at 1 mM in the protein buffer supplemented with 10% DMSO. Compound and protein were mixed at 1:1 volume ratio yielding final concentrations of 15 μM protein and 500 μM for the compounds. FGFR_PEP was measured against both GB1-FRS2_PTB and GB1, all other compounds only against GB1-FRS2_PTB. The mixture was incubated for 15 min before measurement. The data was analyzed for both the ratio of signals at 330 and 350 nm and at 350 nm alone. For the competition assays, the PTB domain and the FGFR peptide were mixed at a 1:5 ratio, and ligand competition was assayed in the presence of 500 μM compound.

[6] = Solubility at the concentration required for the biophysical assays; type: physicochemical; settings: 5% DMSO

nanoDSF shift of the inflection point of the melting curve (ΔTm) [2] | EC50 [3] | EC50 ([3]; Homo sapiens, Daoy) | Kd ([4]; GB1-FRS2_PTB, read-out: KD, initial fluorescence change analysis) | binding by MST trace analysis (result in words) ([4]; signal:noise ratio > 5 counts as binding) | nanoDSF competition with FGFR peptide (result in words) [5] | solubility for biophysical assays (result in words) [6] | SMILES | effect on EGF-induced cell invasion (result in words) [1]
< -2 °C | 1.29 µM | 1.29 µM | 110 µM and 140 µM and 110 to 140 µM | no binding was detected | negative shift in compound-mixed samples | – | O=[N+]([O-])c1c(Cl)cc(O)c2c1C1C=CCC1C(C1CC=CCC1)N2 (stereo not drawn) [Compound 3.18] | only moderately reduced
– | – | – | – | – | negative shift in compound-mixed samples | soluble in 5% DMSO | O=[N+]([O-])c1c(Cl)cc(O)c2c1C1C=CCC1C(c1ccc(Br)cc1)N2 (stereo not drawn) [Compound 2] | –
– | – | – | – | – | negative shift in compound-mixed samples | soluble in 5% DMSO | O=[N+]([O-])c1c(Cl)cc(O)c2c1C1C=CCC1C(c1ccccc1)N2 (stereo not drawn) [Compound 9] | only moderately reduced
